Results from publication PMC8000395, “Effective Small Molecule Antibacterials from a Novel Anti-Protein Secretion Screen” (Microorganisms, 2021).
Where “and” joins values, the source holds several entries; their conditions need not be identical. Equal entries are not always repeated. Where two headings read alike, the source gives them in different places.

Tests used:
[1] = tested on: E. coli MG1655 LolA; design: method as in PMID 23473681; conditions: read-out: IC50 against E. coli MG1655 LolA; cited from earlier work
[2] = tested on: E. coli BL21; assay: Antimicrobial activity test (growth, OD600); assay type: cell-based; conditions: for IC50: Escherichia coli, BL21, BL21, 20 h, 37 °C, OD600, read-out: Bacterial Viability IC50, E. coli BL21
[3] = tested on: E. coli strains; assay: Antimicrobial activity test, E. coli strains (strain not given with the value); assay type: cell-based; conditions: for IC50: strain not given, read-out: Growth inhibition IC50, E. coli strains
[4] = tested on: PhoA secretion in E. coli strain BL21 (pLysS); assay: Luminescence-based HTS assay of in vivo PhoA secretion; assay type: cell-based; conditions: for IC50: Escherichia coli, BL21, luminescence-based HTS assay, E. coli BL21, read-out: Inhibition of PhoA Secretion IC50, HTS
[5] = tested on: B. subtilis ATCC6633; assay: Antimicrobial activity test (growth, OD600); assay type: cell-based; conditions: for IC50: Bacillus subtilis, ATCC6633, 20 h, 37 °C, OD600, read-out: Bacterial Viability IC50, B. subtilis ATCC6633
[6] = tested on: E. coli; conditions: cited from earlier work
[7] = tested on: E. coli MC4100; assay: Antimicrobial activity test (growth, OD600); assay type: cell-based; conditions: for IC50: Escherichia coli, MC4100, 20 h, 37 °C, OD600, read-out: Bacterial Viability IC50, E. coli MC4100
[8] = tested on: PhoA secretion in E. coli MC4100; assay: microbe, parasite or virus in culture; assay type: cell-based; conditions: for IC50: Escherichia coli, PNPP colorimetric lab-scale assay, read-out: Inhibition of PhoA Secretion IC50, Lab-Scale
[9] = tested on: Gram-positive bacteria; assay: Antimicrobial activity test, summary over Gram-positive bacteria; assay type: cell-based; conditions: most Gram-positive bacteria
[10] = tested on: PhoA secretion in BW25113ΔtolC; assay: Lab-scale p-nitrophenyl PhoA secretion assay, ΔtolC strain; assay type: cell-based, E. coli
[11] = tested on: PhoA secretion in E. coli BW25113; assay: Lab-scale p-nitrophenyl PhoA secretion assay, BW25113; assay type: cell-based; conditions: Escherichia coli, read-out: PhoA secretion in vivo IC50, E. coli BW25113
[12] = tested on: E. coli BW25113; assay: Antimicrobial activity test (growth, OD600); assay type: cell-based; conditions: Escherichia coli, 20 h, 37 °C, read-out: Bacterial Viability IC50, E. coli BW25113
[13] = tested on: HEK293T cells; conditions: human, 24 h
Protocol: Hek293T cells were harvested and diluted obtaining a cell suspension with a concentration of 200,000 cells/mL in complete growth medium (DMEM, 4.5 g/L d-glucose, pyruvate 1 mM, 0.075% bicarbonate and 10% Fetal Bovine serum). Of this cell suspension, 50 µL (10,000/well) was seeded in a 384 well culture plate (white polystyrene, tissue culture treated) and incubated at 37 °C-5% CO2 for 4 h in a moisturized incubator, which enables the cells to adhere. After the incubation, small chemical compounds were diluted in medium and 10 µL of a compound solution was added onto the cells, ending up with the required compound concentration. The cells were incubated for 24 h at 37 °C-5% CO2 in a moisturized incubator where after × µL medium was removed to equalize the liquid levels within one plate ending up with ±25 µL/well. The amount of remaining cells/well was determined with ATPlite^TM 1step (Perkin Elmer) Adenosine TriPhosphate (ATP) monitoring system, which is based on firefly luciferase.
The cytotoxicity was calculated by subtracting RLU (relative light units) obtained from the cells incubated with a compound from the RLUs obtained from cells in the presence of the vehicle.
The cytotoxic effect of a test compound was determined as:
Percent cell death = [1−((RLU determined for sample with test compound present—1) divided by (RLU determined in the presence of vehicle—1))] * 100.

[14] = Turbidimetric kinetic aqueous solubility assay; assay type: physicochemical; conditions: pH 7, aqueous buffer, kinetic from dmso stock, turbidimetry 570 nm, PBS pH 7–7.2, 0.5% DMSO, 1 h; read-out: Aqueous Solubility (soluble at)
Protocol: The determination of the aqueous solubility of compounds in this assay is based on the principle of turbidimetry. Turbidimetric methods rely on the measurement of light scattering from precipitate in solution to determine the solubility. Precipitation is identified by an absorbance increase due to blockage of the light by the particles at the wavelength of 570 nm. Compounds, stored in matrix vials (Thermo Fisher) at a stock concentration of 30 mM or 10 mM in 100% Dimethyl sulfoxide (DMSO), were used to make a serial dilution (dose-response) in a 96-well v-bottom propylene plate (Greiner, 651201). Serial dilutions are made to perform the solubility assay; they were made row-wise and start with undiluted compound (30 mM or 10 mM) in the first well and were then 1 over 3 diluted further on. The serial dilutions were eight doses long and contain six compounds per plate maximal (rows B-G). Columns 1 and 12 were filled with 100% DMSO for control purposes. The dose-response plates were 200-times diluted in 300 µL Phosphate Buffered Saline (PBS; pH = 7–7.2 without Ca^2+/Mg^2+) (Gibco, 14190-144) by transferring 1.5 µL of serially diluted compound. […] Dilutions were made by diluting one 96-well plate in two 96-well, flat-bottom, polystyrene plates (Greiner, 655101). These plates were then incubated at room temperature for 1h. After 1h incubation, the plates were read on the envision (Perkin Elmer) at 570 nm.
The data of this assay is reported as “Soluble at” value for each compound. This “soluble at” value represents the concentration where the compound is still soluble and is the concentration before the first precipitated concentration. The first precipitated concentration is the concentration where the absorbance value is more than five standard deviations higher than the average background absorbance. The average background absorbance and the standard deviation are calculated on the 0.5% DMSO controls in columns 1 and 12.

[15] = tested on: Gram-negative and Gram-positive bacteria; assay: Antimicrobial activity test, summary over Gram-negative and Gram-positive bacteria; assay type: cell-based; conditions: 19 Gram-negative and Gram-positive species evaluated
[16] = tested on: E. coli BW25113ΔtolC; assay: Antimicrobial activity test (growth, OD600); conditions: for IC50: Escherichia coli, read-out: Viability IC50, BW25113ΔtolC, E. coli strain missing TolC; for Higher sensitivity of ΔtolC and imp-2413+ derivatives compared to BW25113: viability, Figure 5A
[17] = tested on: E. coli BW25113::imp-2413+; assay: Antimicrobial activity test (growth, OD600); conditions: Escherichia coli, BW25113, read-out: Viability IC50, BW25113::imp-2413+
[18] = tested on: Staphylococcus aureus ATC6538P; assay: Antimicrobial activity test (growth, OD600); assay type: cell-based; conditions: read-out: Bacterial Viability (IC50)
[19] = Escherichia coli, read-out: Inhibition of PhoA Secretion IC50, Lab-Scale (ΔtolC strain), BW25113ΔtolC, p-nitrophenyl assay
[20] = E. coli BL21, MC4100 or BW25113
[21] = Escherichia coli, BW25113, BL21, E. coli BL21, MC4100 or BW25113
[22] = Staphylococcus aureus, ATC6538P

| Structure (SMILES) | IC50 [2] [µM] | IC50 [4] [µM] | IC50 [5] [µM] | IC50 [10, 19] [µM] | IC50 [11] [µM] | IC50 [7] [µM] | IC50 [8] [µM] | IC50 [12] [µM] | Toxicity of Mammalian Cells (HEK293T) LD50 [13] [µM] | solubility at 1 h [14] | also measured |
| --- | --- | --- | --- | --- | --- | --- | --- | --- | --- | --- | --- |
| N=C(N)SCc1ccc(Cl)c(Cl)c1 [A22, S-(3,4-dichlorobenzyl)isothiourea] | – | – | – | – | – | – | – | – | – | – | IC50 [1]: 200 µM |
| [N-]=[N+]=[N-].[Na+] [CC#01, Sodium azide, reference compound] | – | – | – | – | – | – | – | – | – | – | Bacterial Viability, E. coli BL21 (value indicates MIC not IC50) ([2]; NaN3 control): 4000 µM; Growth inhibition of E. coli ([3]; at 4 mM): ~ 80%; Inhibition of secreted phosphatase activity ([4]; HTS assay conditions, sodium azide 4 mM positive control): > 90%; Bacterial Viability, B. subtilis ATCC6633 (value indicates MIC not IC50) ([5]; NaN3 control): >100000 µM; Antibacterial concentration for E. coli [6]: 3 to 4.6 mM; Bacterial Viability, E. coli MC4100 (value indicates MIC not IC50) ([7]; NaN3 control): 4000 µM; Level of secreted PhoA remaining ([8]; sodium azide, Figure 2A, assay format not stated): ~ 17%; Concentration required for any observable inhibition of Gram-positive bacteria [9]: > 100 mM |
| CN(C)c1c(C(=O)O)cnc2ccccc12 [HSI#07] | > 100 | 19 | > 100 | 19.9 | 19 | > 100 | 26.4 | > 100 | 60.2 | 150 µM and 32.4 µg/mL | – |
| O=C(O)c1cnc2ccc(Cl)cc2c1O [HSI#12] | 60 | 11.5 | > 100 | 26 | 19 | > 100 | 11.2 | 39.7 | 60.2 | 50 µM and 11.8 µg/mL | Antibacterial character [15]: bacteriocidal; IC50 [3, 20]: < 65 µM and > 45 µM; IC50 [3, 21]: 44 to 65 µM; IC50 [16]: 23.3 µM; Higher sensitivity of ΔtolC and imp-2413+ derivatives compared to BW25113 [16]: 2 to 40 times; IC50 [17]: 41.4 µM |
| O=C(O)c1cnc2cc(Cl)ccc2c1O [HSI#14] | > 100 | 13.4 | > 100 | 11.5 | 13.5 | > 100 | 14.6 | 31.3 | 60.2 | 150 µM and 33.5 µg/mL | Antibacterial character [15]: bacteriocidal; IC50 [3, 20]: < 65 µM and > 45 µM; IC50 [3, 21]: 44 to 65 µM; IC50 ([10]; read-out: Inhibition of PhoA Secretion IC50, Lab-Scale (ΔtolC strain), BW25113ΔtolC, p-nitrophenyl assay): 11.5 µM; IC50 [16]: 17.2 µM; Higher sensitivity of ΔtolC and imp-2413+ derivatives compared to BW25113 [16]: 2 to 40 times; IC50 [17]: 36.2 µM |
| N=C(N)SCc1ccc(Cl)cc1 [S-(4-chlorobenzyl)isothiourea] | – | – | – | – | – | – | – | – | – | – | IC50 [1]: 150 µM |
| CC1(C)S[C@@H]2[C@H](NC(=O)[C@H](N)c3ccccc3)C(=O)N2[C@H]1C(=O)O [ampicillin, reference compound] | – | – | – | – | – | – | – | – | – | – | IC50 ([18]; Staphylococcus aureus ATC6538P): 0.01 µM |
| CC1(C)S[C@@H]2[C@H](NC(=O)Cc3ccccc3)C(=O)N2[C@H]1C(=O)O [penicillin G, reference compound] | – | – | – | – | – | – | – | – | – | – | IC50 [18, 22]: 0.5 µM |
| CN[C@H](CC(C)C)C(=O)N[C@H]1C(=O)N[C@@H](CC(N)=O)C(=O)N[C@H]2C(=O)N[C@H]3C(=O)N[C@H](C(=O)N[C@H](C(=O)O)c4cc(O)cc(O)c4-c4cc3ccc4O)[C@H](O)c3ccc(c(Cl)c3)Oc3cc2cc(c3O[C@@H]2O[C@H](CO)[C@@H](O)[C@H](O)[C@H]2O[C@H]2C[C@](C)(N)[C@H](O)[C@H](C)O2)Oc2ccc(cc2Cl)[C@H]1O [vancomycin, reference compound] | – | – | – | – | – | – | – | – | – | – | IC50 [18, 22]: 17 µM |
